Experimental data: patent publication US20230091221A1, “PHARMACEUTICAL COMPOSITION” (Chugai Seiyaku Kabushiki Kaisha, priority 2017, published 2023)

Tests used:
Assay type in all cases: in vivo
[1] = tested on: CD8-positive T cells in peripheral blood; test: Number of CD8-positive T cells in peripheral blood in FM3A syngeneic mouse model (flow cytometry); conditions: day 8; irinotecan 250 mg/kg ip once; P<0.05, Wilcoxon Signed-Rank Test
Procedure: On day 8 of administration, peripheral blood was collected, CD8-positive T cells were measured by flow cytometry (FIG. 2).

[2] = tested on: CD8-positive T cells in tumor; test: CD8, CD69 or Ki-67-positive tumor-infiltrating lymphocytes in FM3A syngeneic mouse model (flow cytometry); conditions: day 8, irinotecan 250 mg/kg ip once
Excerpt: On day 8 of administration, tumors were collected, and then cells were dissociated using a gentleMACS (Trademark) Octo Dissociator, washed, and then used for flow cytometry, thereby quantitatively determining CD8, CD69 or Ki-67-positive tumor-infiltrating lymphocytes (TIL) (FIG. 3).

[3] = tested on: Foxp3-positive CD4-positive regulatory T cells in tumor; test: Foxp3-positive CD4-positive regulatory T cells in tumor in FM3A syngeneic mouse model (flow cytometry); conditions: day 8; irinotecan 250 mg/kg ip once
Excerpt: On day 8 of administration, tumors were collected, and then cells were dissociated using a gentleMACS (Trademark) Octo Dissociator, washed, and then used for flow cytometry, thereby measuring Foxp3-positive CD4-positive regulatory T cells by flow cytometry (FIG. 4).

CCc1c2c(nc3ccc(OC(=O)N4CCC(N5CCCCC5)CC4)cc13)-c1cc3c(c(=O)n1C2)COC(=O)[C@]3(O)CC [irinotecan]
number of CD8-positive T cells in peripheral blood versus solvent administration group [1]: significantly lower | CD8-positive T cells in lymph nodes compared with the solvent administration group (FIG. 3A) [2]: not found to exhibit any significant decrease | CD69-positive CD8-positive T cells among tumor cells compared with the solvent administration group (FIG. 3B) [2]: not found to exhibit any significant decrease | Ki-67-positive CD8-positive T cells in tumors compared with the solvent administration group (FIG. 3C) ([2]; 10F.9G2 10 mg/kg ip 3 times a week): significant increases | Foxp3-positive CD4-positive regulatory T cells in tumors versus solvent administration group [3]: significantly lower
